The source made the active and inactive calls.
Assays:
Format in all cases: functional
[1] = biological target: T1, Apoptotic protease-activating factor 1 (Homo sapiens, UniProt O14727)
T1 sequence (O14727 whole entry): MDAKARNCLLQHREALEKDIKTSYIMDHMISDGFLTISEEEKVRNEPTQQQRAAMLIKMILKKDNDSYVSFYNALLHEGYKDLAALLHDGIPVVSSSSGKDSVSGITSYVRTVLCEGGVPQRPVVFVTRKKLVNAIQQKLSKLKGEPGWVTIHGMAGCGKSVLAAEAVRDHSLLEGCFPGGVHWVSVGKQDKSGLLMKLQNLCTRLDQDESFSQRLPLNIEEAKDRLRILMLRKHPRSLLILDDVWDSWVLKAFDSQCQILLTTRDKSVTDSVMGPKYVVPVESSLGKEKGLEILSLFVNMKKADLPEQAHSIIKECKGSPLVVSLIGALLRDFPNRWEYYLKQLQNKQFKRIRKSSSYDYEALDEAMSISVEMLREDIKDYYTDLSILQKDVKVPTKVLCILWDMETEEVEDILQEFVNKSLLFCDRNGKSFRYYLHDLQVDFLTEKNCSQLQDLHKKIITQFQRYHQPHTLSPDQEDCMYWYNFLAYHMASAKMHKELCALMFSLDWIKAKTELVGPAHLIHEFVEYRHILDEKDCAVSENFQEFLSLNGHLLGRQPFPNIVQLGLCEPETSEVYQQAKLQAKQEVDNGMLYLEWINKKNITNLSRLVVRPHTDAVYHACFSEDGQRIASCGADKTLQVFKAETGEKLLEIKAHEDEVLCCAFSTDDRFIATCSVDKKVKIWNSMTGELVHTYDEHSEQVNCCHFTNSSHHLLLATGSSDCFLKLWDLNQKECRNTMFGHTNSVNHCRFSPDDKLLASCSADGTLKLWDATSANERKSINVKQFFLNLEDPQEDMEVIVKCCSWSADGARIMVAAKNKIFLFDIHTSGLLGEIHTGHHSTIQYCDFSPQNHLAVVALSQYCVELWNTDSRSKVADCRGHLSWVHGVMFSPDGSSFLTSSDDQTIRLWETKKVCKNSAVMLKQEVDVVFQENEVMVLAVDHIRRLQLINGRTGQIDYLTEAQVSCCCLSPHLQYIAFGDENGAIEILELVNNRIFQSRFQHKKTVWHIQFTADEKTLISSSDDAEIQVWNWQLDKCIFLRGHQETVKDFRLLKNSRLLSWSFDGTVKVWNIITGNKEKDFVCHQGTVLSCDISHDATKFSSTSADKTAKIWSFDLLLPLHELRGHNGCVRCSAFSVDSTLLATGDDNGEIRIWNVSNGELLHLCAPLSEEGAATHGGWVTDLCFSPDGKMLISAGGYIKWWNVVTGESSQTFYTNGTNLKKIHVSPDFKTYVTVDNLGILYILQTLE

[2] = biological target: Vascular endothelial growth factor receptor 3 (Homo sapiens, UniProt P35916);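 also: value from a kinome-wide profiling panel, with FLT4 as the panel member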
Chain of Vascular endothelial growth factor receptor 3 (P35916 whole entry): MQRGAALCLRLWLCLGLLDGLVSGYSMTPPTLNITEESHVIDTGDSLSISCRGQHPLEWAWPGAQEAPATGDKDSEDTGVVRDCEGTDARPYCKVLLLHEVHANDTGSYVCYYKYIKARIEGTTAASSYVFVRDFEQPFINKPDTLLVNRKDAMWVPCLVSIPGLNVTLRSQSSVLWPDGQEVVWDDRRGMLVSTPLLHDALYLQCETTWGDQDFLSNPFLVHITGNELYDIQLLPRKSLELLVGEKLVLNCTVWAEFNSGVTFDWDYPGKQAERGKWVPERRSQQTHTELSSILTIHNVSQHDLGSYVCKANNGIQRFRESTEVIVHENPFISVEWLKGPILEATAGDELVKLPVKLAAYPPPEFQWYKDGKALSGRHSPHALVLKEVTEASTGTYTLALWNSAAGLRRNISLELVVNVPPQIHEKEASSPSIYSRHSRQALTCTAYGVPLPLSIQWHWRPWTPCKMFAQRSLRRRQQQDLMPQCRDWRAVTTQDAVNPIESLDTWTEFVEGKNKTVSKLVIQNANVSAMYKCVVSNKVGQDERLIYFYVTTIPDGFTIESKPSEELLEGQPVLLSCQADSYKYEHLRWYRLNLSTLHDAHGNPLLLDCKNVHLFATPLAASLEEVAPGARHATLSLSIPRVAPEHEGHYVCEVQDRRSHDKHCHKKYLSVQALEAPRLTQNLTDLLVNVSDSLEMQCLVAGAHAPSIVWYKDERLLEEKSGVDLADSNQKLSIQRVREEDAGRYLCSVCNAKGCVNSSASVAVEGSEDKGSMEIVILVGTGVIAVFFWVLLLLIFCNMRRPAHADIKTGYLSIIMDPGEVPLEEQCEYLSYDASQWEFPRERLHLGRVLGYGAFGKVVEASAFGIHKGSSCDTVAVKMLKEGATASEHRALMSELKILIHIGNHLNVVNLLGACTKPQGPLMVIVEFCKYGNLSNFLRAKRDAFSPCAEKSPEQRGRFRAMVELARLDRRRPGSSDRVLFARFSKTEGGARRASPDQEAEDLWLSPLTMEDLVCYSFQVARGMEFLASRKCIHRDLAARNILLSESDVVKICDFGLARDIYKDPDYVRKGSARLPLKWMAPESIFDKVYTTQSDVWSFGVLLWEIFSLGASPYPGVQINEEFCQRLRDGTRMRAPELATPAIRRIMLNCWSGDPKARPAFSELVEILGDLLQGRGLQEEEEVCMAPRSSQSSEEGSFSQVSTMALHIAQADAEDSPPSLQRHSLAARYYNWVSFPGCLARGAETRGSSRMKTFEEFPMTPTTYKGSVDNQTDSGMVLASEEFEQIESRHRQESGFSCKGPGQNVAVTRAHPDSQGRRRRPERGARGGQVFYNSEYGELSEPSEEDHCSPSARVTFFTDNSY

[3] = biological target: Interleukin-1 receptor-associated kinase 4 (Homo sapiens, UniProt Q9NWZ3)
Chain of Interleukin-1 receptor-associated kinase 4 (Q9NWZ3 whole entry): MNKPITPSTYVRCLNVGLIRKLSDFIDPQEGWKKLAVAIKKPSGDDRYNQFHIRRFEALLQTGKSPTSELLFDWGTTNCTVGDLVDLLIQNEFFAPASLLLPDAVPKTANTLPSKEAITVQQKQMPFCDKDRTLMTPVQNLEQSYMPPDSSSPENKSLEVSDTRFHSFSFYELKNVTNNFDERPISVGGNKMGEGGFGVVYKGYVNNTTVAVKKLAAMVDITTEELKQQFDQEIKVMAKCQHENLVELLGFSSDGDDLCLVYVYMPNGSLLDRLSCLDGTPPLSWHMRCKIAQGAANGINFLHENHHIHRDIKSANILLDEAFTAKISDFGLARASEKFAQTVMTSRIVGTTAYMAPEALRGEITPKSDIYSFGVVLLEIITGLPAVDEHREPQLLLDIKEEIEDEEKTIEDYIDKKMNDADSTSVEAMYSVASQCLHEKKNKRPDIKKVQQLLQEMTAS

[4] = biological target: Ephrin type-A receptor 2 (Homo sapiens, UniProt P29317);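 also: EPHA2 tested as one member of a kinome-wide kinase panel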
Chain of Ephrin type-A receptor 2 (P29317 whole entry): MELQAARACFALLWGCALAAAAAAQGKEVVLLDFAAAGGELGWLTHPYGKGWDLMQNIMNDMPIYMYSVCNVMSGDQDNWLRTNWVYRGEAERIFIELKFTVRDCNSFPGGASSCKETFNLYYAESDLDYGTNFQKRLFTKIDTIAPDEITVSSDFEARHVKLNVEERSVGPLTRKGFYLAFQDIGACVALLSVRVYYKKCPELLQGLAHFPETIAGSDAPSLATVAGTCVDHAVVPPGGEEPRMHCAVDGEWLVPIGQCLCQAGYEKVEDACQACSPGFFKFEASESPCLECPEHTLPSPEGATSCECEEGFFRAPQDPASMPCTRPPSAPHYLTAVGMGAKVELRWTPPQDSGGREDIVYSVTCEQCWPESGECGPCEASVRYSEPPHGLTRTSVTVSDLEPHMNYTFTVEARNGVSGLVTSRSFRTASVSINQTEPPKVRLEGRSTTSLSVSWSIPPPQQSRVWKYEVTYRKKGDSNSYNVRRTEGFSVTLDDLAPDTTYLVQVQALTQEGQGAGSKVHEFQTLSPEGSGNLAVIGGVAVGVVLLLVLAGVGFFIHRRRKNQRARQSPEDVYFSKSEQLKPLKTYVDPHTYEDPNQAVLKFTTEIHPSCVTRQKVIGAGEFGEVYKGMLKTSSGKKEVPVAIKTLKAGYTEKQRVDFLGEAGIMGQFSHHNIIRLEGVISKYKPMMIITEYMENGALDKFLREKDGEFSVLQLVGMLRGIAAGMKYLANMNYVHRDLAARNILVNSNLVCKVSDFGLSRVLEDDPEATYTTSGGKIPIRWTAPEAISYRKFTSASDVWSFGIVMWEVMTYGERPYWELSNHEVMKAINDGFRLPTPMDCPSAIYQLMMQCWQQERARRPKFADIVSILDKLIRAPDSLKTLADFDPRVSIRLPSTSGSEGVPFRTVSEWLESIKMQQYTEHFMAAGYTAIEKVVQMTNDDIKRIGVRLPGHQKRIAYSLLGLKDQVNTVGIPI

[5] = biological target: MAP/microtubule affinity-regulating kinase 3 (Homo sapiens, UniProt P27448);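 also: MARK3 affinity measured as one member of a kinome panel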
Chain of MAP/microtubule affinity-regulating kinase 3 (P27448 whole entry): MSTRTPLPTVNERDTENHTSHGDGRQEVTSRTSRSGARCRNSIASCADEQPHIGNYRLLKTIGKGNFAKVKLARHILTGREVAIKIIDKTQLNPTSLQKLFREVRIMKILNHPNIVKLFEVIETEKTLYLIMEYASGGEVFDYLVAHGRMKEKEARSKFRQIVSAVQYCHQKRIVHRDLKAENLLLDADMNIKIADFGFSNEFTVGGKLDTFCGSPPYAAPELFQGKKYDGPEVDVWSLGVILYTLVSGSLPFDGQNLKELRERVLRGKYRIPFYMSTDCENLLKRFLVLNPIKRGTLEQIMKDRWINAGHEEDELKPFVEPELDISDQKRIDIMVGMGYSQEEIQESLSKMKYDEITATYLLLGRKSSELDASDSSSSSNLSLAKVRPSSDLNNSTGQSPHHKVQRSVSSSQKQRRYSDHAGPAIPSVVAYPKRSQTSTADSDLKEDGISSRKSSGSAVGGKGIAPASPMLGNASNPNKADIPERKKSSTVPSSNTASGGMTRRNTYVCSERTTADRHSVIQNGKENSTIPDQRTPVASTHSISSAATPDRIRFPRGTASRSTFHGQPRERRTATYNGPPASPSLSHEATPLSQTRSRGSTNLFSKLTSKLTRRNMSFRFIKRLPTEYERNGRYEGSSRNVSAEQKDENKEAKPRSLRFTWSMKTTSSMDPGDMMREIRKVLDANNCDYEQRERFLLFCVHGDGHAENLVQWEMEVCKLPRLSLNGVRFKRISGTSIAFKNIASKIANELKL

[6] = biological target: Protein kinase C gamma type (Homo sapiens, UniProt P05129)
[7] = biological target: cAMP-dependent protein kinase catalytic subunit alpha (Homo sapiens, UniProt P17612)
[8] = biological target: T2, Bcl-2-related protein A1 (Mus musculus, UniProt Q07440);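 also: confirmatory dose–response counterscreen on Bfl-1, used to check hits from a UBC13 polyubiquitin inhibitor campaign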
T2 sequence (Q07440 whole entry): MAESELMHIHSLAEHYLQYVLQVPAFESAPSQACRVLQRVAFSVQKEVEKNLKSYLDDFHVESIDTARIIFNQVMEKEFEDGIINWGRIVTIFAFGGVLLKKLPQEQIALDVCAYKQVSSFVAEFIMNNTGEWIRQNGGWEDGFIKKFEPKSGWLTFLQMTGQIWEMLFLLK

Ki [2]	Ki [3]	Ki [4]	Ki [5]	Ki [6]	Ki [7]	SMILES	IC50 [1]	IC50 [8]
						CCC(C)NC(=O)c1c(N)n(CCCOC)c2nc3ccccc3nc12 (centres undefined)	25.9 µM (active)	
> 6.31 µM (inactive)	1.58 µM (active)	> 3.16 µM (inactive)	2 µM (active)	0.631 µM (active)	> 7.94 µM (inactive)	CC(=NNC(=N)N)c1cc(NC(=O)NCCCCCCNC(=O)Nc2cc(C(C)=NNC(=N)N)cc(C(C)=NNC(=N)N)c2)cc(C(C)=NNC(=N)N)c1		
						Cc1cc(N)c2cc(NC(=O)/C=C/c3ccccc3Cl)ccc2n1	9.95 µM (active)	18.2 µM (active)

Source: ChEMBL document CHEMBL1201862, “PubChem BioAssay data set” (2004)
